From patent US20110201603A1, “Novel Acylaminobenzamide Derivatives” (Bayer CropScience AG, priority 2008, published 2011)

What was measured:
Type in all cases: in vivo
[1] = tested on: tobacco cutworm (Spodoptera litura) larvae; assay: Test against tobacco cutworm (Spodoptera litura) larvae, leaf dip; conditions: active compound concentration of 100 ppm; third-instar larvae on sweet potato leaves; after 7 days
Method: (§1) Unless not mentioned otherwise, the test solutions were prepared as follows:
(§2) Containing as solvent: Dimethylformamide, 3 parts by weight; and as emulsifier: Polyoxyethylene alkyl phenyl ether, 1 part by weight
(§3) To prepare the test solution, 1 part by weight of an active compound is mixed with the above-mentioned amount of solvent containing the above-mentioned amount of emulsifier, and the mixture is diluted with water to the desired concentration.
The leaves of sweet potato were immersed in the test solution at the appropriate concentration, and the leaves were dried in air. The leaves were then placed in a petri dish having a diameter of 9 cm, and ten third-instar larvae of tobacco cutworm were released therein. The petri dish was placed in a temperature-controlled chamber at 25° C. After 2 days and 4 days sweet potato leaves were additionally added. After 7 days, the number of dead larvae was counted to calculate the insecticidal activity. An insecticidal activity of 100% means that all larvae were killed, whereas an insecticidal activity of 0% means that no larva was killed. In the current test, the results of two petri dishes for each partition were averaged.

[2] = tested on: Musca domestica; assay: Musca domestica test; conditions: application rate of 100 ppm; adults, sugar sponge; after 2 days
Method: (§4) Solvent: dimethyl sulfoxide
To produce a suitable preparation of active compound, 10 mg of active compound are dissolved in 0.5 ml solvent, and the concentrate is diluted with water to the desired concentration. Prior to the assay, a piece or kitchen sponge is soaked with a mixture of sugar and compound solution and placed into a container. 10 adults (Musca domestica) are placed into the container and closed with a perforated lid. After 2 days mortality in % is determined. 100% means that all the flies have been killed; 0% means that none of the flies have been killed.

[3] = tested on: cucurbit leaf beetle (Aulacophora femoralis); assay: Test against cucurbit leaf beetle (Aulacophora femoralis), leaf dip; conditions: active compound concentration of 100 ppm; second-instar larvae on cucumber leaves; after 7 days
Method: as §1, §2, §3
Cucumber leaves were immersed in the test solution at the appropriate concentration, and the leaves were dried in air. The leaves were then placed in a plastic cup containing sterilized black soil, and five second-instar larvae of cucurbit leaf beetle were released therein. The plastic cup was placed in a temperature-controlled chamber at 25° C. After 7 days, the number of dead larvae was counted, and thus the insecticidal activity was calculated. An insecticidal activity of 100% means that all beetles were killed, whereas an insecticidal activity of 0% means that no beetle was killed.

[4] = tested on: two-spotted spider mite (Tetranychus urticae); assay: Test against two-spotted spider mite (Tetranychus urticae), spray; conditions: concentration of 100 ppm; adult mites on kidney beans; after 7 days
Method: as §1, §2, §3
50 to 100 adult two-spotted spider mites were inoculated onto the leaves of kidney beans at the two-true leaf stage, which plant had been cultivated in a pot having a diameter of 6 cm. After one day, test solution at the appropriate concentration was sprayed thereon in a sufficient amount using a spray gun. After the spraying, the plant pot was placed inside a greenhouse, and after 7 days, the acaricidal activity was calculated. An acaricidal activity of 100% means that all mites were killed, whereas an acaricidal activity of 0% means that no mite was killed.

[5] = tested on: Ctenocephalides felis; assay: Ctenocephalides felis test (CTECFE), blood feeding; conditions: application rate of 100 ppm in cattle blood; adult unfed fleas; after 2 days
Method: as §4
To produce a suitable preparation of active compound, 10 mg of active compound are dissolved in 0.5 ml solvent, and the concentrate is diluted with cattle blood to the desired concentration.
Approximately 10 to 15 adult unfed (Ctenocepahlides felis) are placed in flea chambers. The blood chamber, are sealed with paraffin on the bottom are filled with cattle blood supplied with compound solution and placed on top of the flea chamber, so that the fleas are able to suck the blood. The blood chamber is heated to 37° C. whereas the flea chamber is kept at room temperature. After 2 days mortality in % is determined. 100% means that all the fleas have been killed; 0% means that none of the fleas have been killed.

[6] = tested on: Lucilia cuprina larvae; assay: Lucilia cuprina test; conditions: application rate of 100 ppm; larvae on minced horse meat; after 2 days
Method: as §4
To produce a suitable preparation of active compound, 10 mg of active compound are dissolved in 0.5 ml solvent, and the concentrate is diluted with water to the desired concentration. Approximately 20-30 (Lucilia cuprina larvae) are transferred into a test tube containing 1 cm^3 of minced horse meat and 0.5 ml aqueous dilution of test compound. After 2 days mortality in % is determined. 100% means that all the larvae have been killed; 0% means that none of the larvae have been killed.

SMILES | insecticidal activity [1] | activity (mortality in %) [2] | insecticidal activity [3] | acaricidal activity rate [4] | activity (mortality in %) [5] | activity (mortality in %) [6]
CCOC(=O)Nc1cccc(C(=O)Nc2c(I)cc(C(OCC)(C(F)(F)F)C(F)(F)F)cc2I)c1 [1-24] | 100% | 90% | – | – | – | –
O=C(Nc1c(Br)cc(C(CF)(n2cc(Cl)cn2)C(F)(F)F)cc1Br)c1cccc(NC(=O)c2cccnc2Cl)c1 (stereo not drawn) [2-24] | 100% | – | 100% | 100% | – | –
Cc1cc(C(n2cc(C(F)(F)F)cn2)C(F)(F)F)cc(C)c1NC(=O)c1cccc(NC(=O)c2cccnc2F)c1 (stereo not drawn) [2-103] | 100% | – | 100% | – | 95% | –
Cc1cc(C(n2cc(Br)cn2)(C(F)(F)F)C(F)(F)F)cc(C)c1NC(=O)c1cccc(NC(=O)c2cccnc2Cl)c1 [2-84] | 100% | – | – | 100% | 95% | –
Cc1cc(C(n2cc(Cl)c(C(F)(F)C(F)(F)F)n2)(C(F)(F)F)C(F)(F)F)cc(C)c1NC(=O)c1cccc(NC(=O)c2cccnc2Cl)c1 [2-120] | 100% | – | – | – | – | 90%
CCc1cc(C(OCC2CC2)(C(F)(F)F)C(F)(F)F)cc(C)c1NC(=O)c1cccc(NC(=O)c2cccnc2Cl)c1 [1-66] | 100% | – | 100% | 100% | – | –
Cc1cc(C(n2cc(C(F)(F)F)cn2)(C(F)(F)F)C(F)(F)F)cc(C)c1NC(=O)c1cccc(NC(=O)c2cccnc2F)c1 [2-108] | 100% | – | 100% | – | 100% | –
Cc1cc(C(n2cncn2)(C(F)(F)F)C(F)(F)F)cc(Br)c1NC(=O)c1cccc(NC(=O)c2ccccc2F)c1 [2-151] | – | – | – | – | 90% | –
CC(c1cc(Br)c(NC(=O)c2cccc(NC(=O)c3cccnc3Cl)c2)c(Br)c1)(n1cc(Br)cn1)C(F)(F)F (stereo not drawn) [2-83] | 100% | – | 100% | 100% | – | –
Cc1cc(C(n2cc(C(F)(F)F)cn2)(C(F)(F)F)C(F)(F)F)cc(C)c1NC(=O)c1cccc(NC(=O)c2cccnc2Cl)c1 [2-109] | 100% | – | 100% | – | 100% | –
CCOC(c1cc(I)c(NC(=O)c2cccc(NC(=O)c3ccccc3F)c2)c(I)c1)(C(F)(F)F)C(F)(F)F [1-26] | 100% | 90% | 100% | – | 100% | –
CCCOC(c1cc(I)c(NC(=O)c2cccc(NC(=O)c3ccc(Cl)nc3Cl)c2)c(I)c1)(C(F)(F)F)C(F)(F)F [1-64] | – | – | – | 100% | – | –
CCc1cc(C(n2cccc2)(C(F)(F)F)C(F)(F)F)cc(C)c1NC(=O)c1cccc(NC(=O)c2cccnc2Cl)c1 [2-1] | 100% | – | 100% | 100% | – | –
CCOC(c1cc(I)c(NC(=O)c2cccc(NC(=O)c3cccnc3F)c2)c(I)c1)(C(F)(F)F)C(F)(F)F [1-59] | 100% | 100% | 100% | – | 95% | –
CCOC(c1cc(I)c(NC(=O)c2cccc(NC(=O)c3ccccc3)c2)c(I)c1)(C(F)(F)F)C(F)(F)F [1-25] | 100% | 80% | 100% | – | 90% | –
Cc1cc(C(n2cc(Cl)cn2)(C(F)(F)F)C(F)(F)F)cc(C)c1NC(=O)c1cccc(NC(=O)c2cccnc2Cl)c1 [2-51] | 100% | – | – | 100% | 100% | –

SMILES | insecticidal activity [1] | activity (mortality in %) [2] | insecticidal activity [3] | acaricidal activity rate [4] | activity (mortality in %) [5] | activity (mortality in %) [6]
Cc1cc(C(N=[N+]=[N-])(C(F)(F)F)C(F)(F)F)cc(C)c1NC(=O)c1cccc(NC(=O)c2cccnc2Cl)c1 [2-145] | 100% | – | 100% | 100% | – | –
C#CCOC(c1cc(I)c(NC(=O)c2cccc(NC(=O)c3cccnc3Cl)c2)c(I)c1)(C(F)(F)F)C(F)(F)F [1-80] | 100% | 100% | – | – | 80% | –
O=C(Nc1c(Br)cc(C(n2cc(Cl)cn2)(C(F)(F)F)C(F)(F)F)cc1Br)c1cccc(NC(=O)c2cccnc2Cl)c1 [2-62] | 100% | – | 100% | 100% | – | –
CCOC(c1cc(I)c(NC(=O)c2cccc(NC(=O)c3cccc(F)c3)c2)c(I)c1)(C(F)(F)F)C(F)(F)F [1-27] | 100% | 80% | 100% | 100% | 90% | –
CCOC(c1cc(I)c(NC(=O)c2cccc(NC(=O)c3ccc(F)cc3)c2)c(I)c1)(C(F)(F)F)C(F)(F)F [1-28] | 100% | – | 100% | 100% | – | –
CCc1cc(C(n2cc(Br)cn2)C(F)(F)F)cc(C)c1NC(=O)c1cccc(NC(=O)c2cccnc2Cl)c1 (stereo not drawn) [2-77] | 100% | – | – | – | 90% | –
CCOC(c1cc(I)c(NC(=O)c2cccc(NC(=O)c3ccc(Cl)nc3Cl)c2)c(I)c1)(C(F)(F)F)C(F)(F)F [1-61] | – | – | 100% | 100% | – | –
CCOC(c1cc(I)c(NC(=O)c2cccc(NC(=O)c3cccnc3Cl)c2)c(I)c1)(C(F)(F)F)C(F)(F)F [1-40] | 100% | 100% | 100% | 100% | 90% | –
Cc1cc(C(n2cc(F)cn2)(C(F)(F)F)C(F)(F)F)cc(C)c1NC(=O)c1cccc(NC(=O)c2cccnc2Cl)c1 [2-6] | 100% | – | 100% | 100% | – | –
CC(c1cc(Br)c(NC(=O)c2cccc(NC(=O)c3cccnc3F)c2)c(Br)c1)(n1cc(Br)cn1)C(F)(F)F (stereo not drawn) [2-82] | 100% | – | 100% | 100% | – | –
CCc1cc(C(n2cc(Cl)cn2)(C(F)(F)F)C(F)(F)F)cc(C)c1NC(=O)c1cccc(NC(=O)c2cccnc2)c1 [2-42] | – | – | – | 100% | – | –
CCc1cc(C(C#N)(C(F)(F)F)C(F)(F)F)cc(C)c1NC(=O)c1cccc(NC(=O)c2cccnc2Cl)c1 [4-5] | 100% | – | 100% | 100% | – | –
CCOC(c1cc(I)c(NC(=O)c2cccc(NC(=O)c3ccc(Cl)nc3)c2)c(I)c1)(C(F)(F)F)C(F)(F)F [1-60] | 100% | 100% | 100% | 100% | 100% | –
CCc1cc(C(n2cc(Cl)cn2)(C(F)(F)F)C(F)(F)F)cc(C)c1NC(=O)c1cccc(NC(=O)c2cccnc2Cl)c1 [2-55] | 100% | – | 100% | 100% | – | –
Cc1cc(C(n2cncn2)(C(F)(F)F)C(F)(F)F)cc(C)c1NC(=O)c1cccc(NC(=O)c2cccnc2Cl)c1 [2-148] | – | – | – | – | 95% | –
CCc1cc(C(Oc2ccc(Cl)cc2)(C(F)(F)F)C(F)(F)F)cc(C)c1NC(=O)c1cccc(NC(=O)c2cccnc2Cl)c1 [1-109] | 100% | – | 100% | 100% | – | –
